Measured values reported in patent US6436992B1, “Use of fumaric acid derivatives” (Fumapharm AG, priority 1997, dated 2002).

Test system: haemagglutinin formation in mice
Assay: Inhibition of haemagglutinin formation in mice immunised with sheep erythrocytes, after peroral administration
Type: in vivo
[1] = mice, 150 mg/kg bodyweight p.o.
[2] = mice, 300 mg/kg bodyweight p.o.
[3] = mice, 600 mg/kg bodyweight p.o.

With COC(=O)/C=C/C(=O)[O-].[Ca+] [Methyl hydrogen fumarate-Ca salt] the “Inhibition of haemagglutinin formation in %” value (from here on “Inhibition … in %”) [1] was 13%, the Suppression index [1] was 0.87 and the “Inhibition … in %” value [2] was 20%. The Suppression index [2] was 0.80, the “effect on haemagglutinin formation (in words)” value (mice, 300 mg/kg p.o.) was “slight reduction” and the “Inhibition … in %” value [3] was 38%. The Suppression index [3] was 0.62, the “suppressive effect on haemagglutinin formation (in words, over dose range)” value (mice, 150, 300 and 600 mg/kg p.o.) was “dosage-dependent suppressive effect” and the “immuno-suppressive effect (conclusion)” value (mice, p.o.) was “significant immuno-suppressive effect”.
